In general, EC50 refers to the concentration giving half of the maximal effect. For orientation: Emax means the size of the effect at its maximum, as opposed to the concentration needed. By IC50 is commonly meant the midpoint of a concentration-inhibition curve.

The text below walks through data of article PMC12881670, “Investigation into ligand selectivity and bias at the formyl peptide receptor family” (The Journal of Pharmacology and Experimental Therapeutics, 2025).

The target in assay [1] is T1, Mm_Fpr1 (Mus musculus, UniProt P33766).
T1 construct: expressed in transfected cells
T1 sequence (P33766 1-364): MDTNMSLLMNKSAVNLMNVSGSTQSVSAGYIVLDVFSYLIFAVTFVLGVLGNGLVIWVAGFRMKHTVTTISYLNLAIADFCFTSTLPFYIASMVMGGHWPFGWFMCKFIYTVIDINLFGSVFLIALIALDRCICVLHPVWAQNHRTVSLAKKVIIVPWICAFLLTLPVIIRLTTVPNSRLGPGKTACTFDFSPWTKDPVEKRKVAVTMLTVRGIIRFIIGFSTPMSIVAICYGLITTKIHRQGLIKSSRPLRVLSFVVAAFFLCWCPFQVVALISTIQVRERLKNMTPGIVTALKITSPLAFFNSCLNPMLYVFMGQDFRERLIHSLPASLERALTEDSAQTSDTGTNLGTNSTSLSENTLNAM
Briefly: BRET receptor-RLuc8 interaction with Arrestin 3-YFP. It counts as cell-based. The settings on record: for Emax (%) / Log EC50 (M): Arrestin 3 BRET, mean, ND = no interaction detected; for Emax (%): % of response to 1 μM WKYMVm; for Log EC50 (M): log of EC50, HEK293 transient, 10 min. Summed up:
(§1)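 Cells were transiently cotransfected with C-terminal RLuc8-tagged FPR and Venus-mGsi or YFP-Arrestin 3 (1:4), then replated at 24 h and cultured a further 24–48 h. After 30 min in HBSS, coelenterazine h (5 μM final) was added 5 min before compound, with a 10 min incubation at 37 °C. Background-subtracted acceptor/donor ratio (N-BRET) was fitted by 3-parameter log(agonist) regression.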
A general note: BRET reads energy transfer from a luciferase to a nearby fluorophore.

Assay [2] deals with T2, Hs_FPR1 (Homo sapiens, UniProt P21462).
T2 construct: expressed in transfected cells
T2 sequence (P21462 1-350): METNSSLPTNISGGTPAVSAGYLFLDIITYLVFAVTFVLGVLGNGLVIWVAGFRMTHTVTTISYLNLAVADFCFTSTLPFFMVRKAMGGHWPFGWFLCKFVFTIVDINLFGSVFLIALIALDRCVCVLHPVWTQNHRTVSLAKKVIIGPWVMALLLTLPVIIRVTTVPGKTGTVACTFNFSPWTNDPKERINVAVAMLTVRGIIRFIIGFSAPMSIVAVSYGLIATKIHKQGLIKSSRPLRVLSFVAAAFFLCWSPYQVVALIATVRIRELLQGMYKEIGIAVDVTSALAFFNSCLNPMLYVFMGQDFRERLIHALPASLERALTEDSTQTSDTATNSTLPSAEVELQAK
The description is as above. In kind it is cell-based. The settings on record: for Emax (%) / Log EC50 (M): Arrestin 3 BRET, mean, ND = no interaction detected; for Emax (%): % of response to 1 μM WKYMVm; for Log EC50 (M): log of EC50, HEK293 transient, 10 min. Summed up: as §1

The target in assay [3] is T3, Mm_Fpr2 (Mus musculus, UniProt O88536).
T3 construct: expressed in transfected cells
T3 sequence (O88536 1-351): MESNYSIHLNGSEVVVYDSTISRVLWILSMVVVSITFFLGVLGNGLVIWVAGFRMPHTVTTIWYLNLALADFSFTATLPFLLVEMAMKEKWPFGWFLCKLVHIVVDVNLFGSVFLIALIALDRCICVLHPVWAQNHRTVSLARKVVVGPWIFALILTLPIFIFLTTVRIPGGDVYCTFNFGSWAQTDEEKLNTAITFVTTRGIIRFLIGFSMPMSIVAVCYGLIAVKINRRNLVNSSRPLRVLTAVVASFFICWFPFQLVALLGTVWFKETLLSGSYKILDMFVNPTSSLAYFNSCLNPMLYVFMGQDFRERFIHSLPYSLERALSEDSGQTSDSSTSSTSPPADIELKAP
The assay is described as above. As to conditions: for Emax (%) / Log EC50 (M): Arrestin 3 BRET, mean, ND = no interaction detected; for Emax (%): % of response to 1 μM WKYMVm; for Log EC50 (M): log of EC50, HEK293 transient, 10 min. It counts as cell-based. Summed up:
as §1

Assay [4] has as its target T1, Mm_Fpr1. As to the kind of experiment: Competition binding of fluorescent WKYMVm, flow cytometry. The settings on record: for Log IC50 (M): log of IC50, competition with 10 nM K(5/6-FAM)-WKYMVm, HEK293 stable cells, on ice 90 min; for Log IC50 (M) / Max Comp (%): mean, ND = no competition observed; for Max Comp (%): maximum proportion of competition with 10 nM K(5/6-FAM)-WKYMVm. As for the experimental part: (§2) Mean cell fluorescence was then measured for 5000 cells by flow cytometry using either a BD FACScalibur or BD Attune.
(§3) All data were analyzed using GraphPad Prism using the nonlinear regression log(agonist) versus response (3 parameters) function for all assays, except binding, which was analyzed using the One site-FitlogIC50 function. Bias calculations were carried out following IUPHAR guidelines as described,[27]^,[37] and data were presented as the Δ Activity ratio (Log[EmaxB/EC50B])-(Log[EmaxA/EC50A]).
On the technique in general: A flow cytometer gives signals particle by particle.

Assay [5] deals with T2, Hs_FPR1. The assay is described as above. As to conditions: for Log IC50 (M): log of IC50, competition with 10 nM K(5/6-FAM)-WKYMVm, HEK293 stable cells, on ice 90 min; for Log IC50 (M) / Max Comp (%): mean, ND = no competition observed; for Max Comp (%): maximum proportion of competition with 10 nM K(5/6-FAM)-WKYMVm. How it is done:
as §2, §3

For assay [6], the target named is T3, Mm_Fpr2. The assay is described as above. As to conditions: for Log IC50 (M): log of IC50, competition with 10 nM K(5/6-FAM)-WKYMVm, HEK293 stable cells, on ice 90 min; for Log IC50 (M) / Max Comp (%): mean, ND = no competition observed; for Max Comp (%): maximum proportion of competition with 10 nM K(5/6-FAM)-WKYMVm. As for the experimental part:
as §2, §3

In assay [7] the target is T4, Hs_FPR2 (Homo sapiens, UniProt P25090).
T4 construct: expressed in transfected cells
T4 sequence (P25090 1-351): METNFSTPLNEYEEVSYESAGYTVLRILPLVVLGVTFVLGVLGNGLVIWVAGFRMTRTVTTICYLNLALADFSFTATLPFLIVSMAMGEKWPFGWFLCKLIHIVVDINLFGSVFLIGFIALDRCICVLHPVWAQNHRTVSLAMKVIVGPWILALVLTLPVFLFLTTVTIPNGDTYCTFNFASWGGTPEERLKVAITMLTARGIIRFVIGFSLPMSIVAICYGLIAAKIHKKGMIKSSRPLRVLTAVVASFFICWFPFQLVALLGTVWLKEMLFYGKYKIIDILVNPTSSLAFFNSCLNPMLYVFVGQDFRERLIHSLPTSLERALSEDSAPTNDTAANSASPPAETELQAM
Described as above. As to conditions: for Log IC50 (M): log of IC50, competition with 10 nM K(5/6-FAM)-WKYMVm, HEK293 stable cells, on ice 90 min; for Log IC50 (M) / Max Comp (%): mean, ND = no competition observed; for Max Comp (%): maximum proportion of competition with 10 nM K(5/6-FAM)-WKYMVm. How it is done:
as §2, §3

Assay [8] has as its target T3, Mm_Fpr2. As to the kind of experiment: BRET receptor-RLuc8 interaction with Venus-mGsi. It counts as cell-based. As to conditions: for Log EC50 (M): log of EC50, HEK293 transient, 10 min; for Log EC50 (M) / Emax (%): mGsi BRET, mean, ND = no interaction detected; for Emax (%): % of response to 1 μM WKYMVm. Summed up: as §1
Assay [9] relates to FPR2. The settings on record: read-out: EC50 arrestin recruitment, Pathhunter, cited from earlier work. (In general: Recruitment of arrestin is a read-out of receptor activation apart from second messengers.)
Assay [10] concerns the target T5, FLAG-tagged human FPR2 (Hs_FPR2) (human, UniProt P25090 1-351).
T5 construct: human formyl peptide receptor 2; also called hFPR2; source: HEK293, stably expressed, on cells; not shown: FLAG, N-terminal, kept
T5 sequence (looked up): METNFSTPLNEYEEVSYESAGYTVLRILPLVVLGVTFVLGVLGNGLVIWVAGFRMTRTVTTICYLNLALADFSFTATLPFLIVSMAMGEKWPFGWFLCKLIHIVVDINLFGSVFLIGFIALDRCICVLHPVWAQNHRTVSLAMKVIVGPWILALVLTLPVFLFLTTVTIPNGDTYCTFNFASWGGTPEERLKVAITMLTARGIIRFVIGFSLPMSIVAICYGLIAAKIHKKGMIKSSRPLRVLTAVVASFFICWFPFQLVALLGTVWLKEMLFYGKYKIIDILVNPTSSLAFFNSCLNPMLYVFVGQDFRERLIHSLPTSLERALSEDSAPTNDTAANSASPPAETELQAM
Briefly: flow cytometry on cells; competition binding: HEK293 cells stably expressing the receptor, lifted in PBS, on ice 90 min with 10 nM K(5/6-FAM)-WKYMVm and increasing unlabeled ligand; mean fluorescence of 5000 cells as % of that without competitor; One site-Fit logIC50.

Where two headings read alike, the source gives them in different places. Where a SMILES comes first, the peptide text is derived from it. Where no end group is shown, it is not given here. [ ]: non-standard residue; d: D form. The star is where a group is joined. For = O=C*

As for `Cc1cccc(-c2oc(C)nc2C(=O)Nc2cnn(Cc3nc(C(C)(F)F)co3)n2)c1` [ACT-389949], the “Emax (%)” value in assay [1] is recorded as 52.62%; in assay [2] it was 86.48%; in assay [3], 95.34%; in [8], 116.06%. The “Log EC50 (M)” value in [1] was −5.98 M; in assay [2], −6.00 M; in [3], −7.66 M; in assay [8] it was −7.57 M. Further, the “Log IC50 (M)” value was −7.070 M in assay [4], −5.265 M in [5], −7.192 M in assay [6] and −7.434 M in [7]. In addition, the “Max Comp (%)” value in assay [4] turned out to be 25.96%; in assay [5], 80.70%; in [6] it was 80.31%; in [7], 94.77%. Also, the concentration giving a half-maximal response (EC50) in [9] (FPR2) was 20 nM.

With `COc1cc(F)c([C@@H]2CNC(=O)[C@H]2NC(=O)Nc2ccccc2)c(F)c1` [BMS-986235], the EC50 was 6.76 nM in assay [1]; 2290 nM in assay [2]; 151 nM in assay [3]; 166 nM in [8]; 130 nM in assay [9] (Hs_FPR2). Also, the Emax in assay [1] amounted to 18.2%; in [2] it was 5.54%; in assay [3] it was 100%; in assay [8], 104%. In addition, in [1] (Mm_Fpr1, mGsi versus Arrestin3 bias comparison), the “efficacy, % of WKYMVm” value was less than 20%. Further, the IC50 in assay [4] was 1120 nM; in assay [6] it was 72.6 nM; in assay [7], 2440 nM. The “Max Comp (%)” value in [4] amounted to 37.54%; in [6] it was 78.55%; in [7] it was 60.14%. In addition, in assay [7] (at 10 μM, incomplete competition), the “competition with K(5/6-FAM)-WKYMVm” value is recorded as approximately 50%.

`CSCC[C@H](NC(=O)[C@H](Cc1ccc(O)cc1)NC(=O)[C@H](CCCCN)NC(=O)[C@@H](N)Cc1c[nH]c2ccccc12)C(=O)N[C@H](C(=O)N[C@H](CCSC)C(N)=O)C(C)C` [WKYMVm]: the maximum response (Emax) in [1] was 112%; in assay [2] it was 105%; in assay [3] it was 101%; in [8], 103%.

Take `CCCCOc1ccc(C(=O)NN2C(=O)c3ccccc3NC2c2ccc(OC)cc2)cc1` (stereo not shown) [QuinC1]: the “Emax (%)” value in [1] was found to be 49.50%; in assay [2] it was 17.25%; in assay [3], 68.75%; in assay [8], 70.36%. Also, the “Log EC50 (M)” value is on record as −6.33 M in assay [1], −5.35 M in [2], −6.40 M in [3] and −6.35 M in [8]. Further, the “Log IC50 (M)” value in assay [4] was −6.114 M; in assay [5], −7.943 M; in [6] it was −7.98 M; in assay [7], −7.399 M. Further, the “Max Comp (%)” value in assay [4] was found to be 52.13%; in [5], 9.96%; in assay [6], 27.99%; in assay [7] it was 13.23%.

As to `CSCC[C@H](NC=O)C(=O)N[C@@H](CC(C)C)C(=O)N[C@@H](Cc1ccccc1)C(=O)N[C@@H](CCCCN)C(=O)O` [fMLFK, fMet-Leu-Phe-Lys] (For-MLFK-OH), the EC50 in assay [1] is 7240 nM; in assay [2], 35.5 nM; in assay [3] it was 16200 nM; in assay [8], 30200 nM. Further, the maximal response (Emax) amounted to 95.2% in assay [1], 97.4% in assay [2], 72.5% in assay [3] and 82.7% in [8]. Besides, the IC50 in assay [4] was 8260 nM; in assay [5], 586 nM; in assay [6], 828 nM; in assay [7] it was 1.47 nM. Besides, the “Max Comp (%)” value is listed as 72.44% in assay [4], 63.28% in [5], 30.81% in assay [6] and 14.72% in [7].

Consider LESIFRSLLFRVM [MMK1], for which, in assay [5], the “Log IC50 (M)” value is listed as −10.05 M and the “Max Comp (%)” value was 6.82%. Further, in assay [7], the “Log IC50 (M)” value is on record as −5.88 M and the “Max Comp (%)” value was 100%.

B1: WKYMVm (peptide)
peptide: WKYMV[dM]
notes: the last residue is the D form; the bought peptide is probably also an amide (surmise); source: bought: Tocris
For B1, in [10], the “Log IC50” value is -7.7 log M and the “Max Comp (%)” value was 100%.
